Measurements published in US20190357538A1, “An Antifungal Composition Comprising Natamycin and C4-C22 Fatty Acids, Monoglycerides of These Fatty Acids and/or Derivatives of These Fatty Acids” (Arec Crop Protection B.V., priority 2015, published 2019).
Counter-ions that a name gives are not always drawn.

Tests used:
[1] = test system: Saccharomyces cerevisiae; assay: filter disc inhibition zone on PDA Petri dishes (90 mm, 50 μL), Example 4; format: cell-based; settings: 3 mM natamycin alone; after 16 h
Description: Saccharomyces cerevisiae (at least 10^5 cfu/mL) was distributed on Petri dishes with a diameter of 90 mm containing 10 ml PDA agar (Carl Roth, pH about 6) using sterilized swabs. Filter paper discs (Whatman) with a diameter of 6 mm were loaded with 50 μL of a solution containing a concentration of 3 mM natamycin plus 0.3 mM of a mixture of oleic acid sodium salt and stearic acid sodium salt in a 50/50 ratio (this mixture will be referred to as fatty acid mix). As controls, the effect of the fatty acid mix alone (without natamycin) was tested on yeast growth. Yeast growth was also determined after incubation on medium without both natamycin and fatty acid salts. The size of the inhibition zone is a result of the natamycin and/or fatty acid salts released from the sample disc. After 16 h of incubation in the stove the size of the inhibition zone was measured using a digital caliper gauge. The data are presented as square mm and are an average of four replicas.

[2] = test system: Saccharomyces cerevisiae; assay: filter disc inhibition zone on Petri dishes (90 mm), Example 3; format: cell-based; settings: for surface of inhibition zone: 90 mm dish, after 16 h
Description: Saccharomyces cerevisiae (at least 10^5 cfu/ml) was distributed on Petri dishes with a diameter of 145 mm containing 30 ml Potato Dextrose Agar (PDA; Carl Roth; pH of about 6) using sterilized swabs. Filter paper discs (Whatman, Antibiotic Assay Paper, grade AA) with a diameter of 6 mm were loaded with 40 μl of a solution of 3 mM natamycin (Chinonbio, China, 95%) plus 0, 0.03, 0.09, 0.3 or 0.9 mM of sodium salts of butanoic acid (Carl Roth >99%), caprylic acid (Carl Roth, >99.5%), palmitic acid (Sigma, sodium palmitate 98.5) or stearic acid (Carl Roth, sodium stearate 88-92%). As controls, the effects of the fatty acid salts alone (without natamycin) were tested. Yeast growth was also measured after incubation on medium without natamycin and fatty acid salts.
Following the application of a filter, Petri dishes were incubated upside down for 24 h in a refrigerator at 4° C. to allow diffusion of natamycin into the agar. After 24 h the filter discs were removed from the agar and the Petri dishes were incubated upside down in a stove at 30° C. […] After 16 h incubation in the stove the size of the inhibition zone was determined using a digital caliper gauge. The data are presented as square mm and are an average of four replicas.
The experiment was performed as described in example 2, except that the diameter of the petri dishes was 90 mm. Measurement of the inhibition zone was after 16 hours.

[3] = test system: Saccharomyces cerevisiae; assay: filter disc inhibition zone on PDA Petri dishes (145 mm), Example 2; format: cell-based; settings: after 16 h
Description: Saccharomyces cerevisiae (at least 10^5 cfu/ml) was distributed on Petri dishes with a diameter of 145 mm containing 30 ml Potato Dextrose Agar (PDA; Carl Roth; pH of about 6) using sterilized swabs. […] As controls, the effects of the fatty acid salts alone (without natamycin) were tested. Yeast growth was also measured after incubation on medium without natamycin and fatty acid salts. Following the application of a filter, Petri dishes were incubated upside down for 24 h in a refrigerator at 4° C. to allow diffusion of natamycin into the agar. After 24 h the filter discs were removed from the agar and the Petri dishes were incubated upside down in a stove at 30° C. […] After 16 h incubation in the stove the size of the inhibition zone was determined using a digital caliper gauge. The data are presented as square mm and are an average of four replicas.

[4] = solubility of natamycin in aqueous composition (description); format: physicochemical; settings: presence of fatty acids, monoglycerides and/or derivatives; pH between 5 and 9
[5] = saturation level of natamycin in water by HPLC; format: physicochemical
[6] = test system: Botrytis cinerea; assay: rot on wounded apples inoculated with Botrytis cinerea; format: in vivo; settings: 3 mM natamycin; for Lesion area on apple fruits: 0 FA; for Antifungal activity (%): apple fruits
From the text: Tested fruit: apples cv Maribelle from organic origin/SKAL certified. SKAL is a semi-governmental Dutch organization that controls organic production in the Netherlands. Wounds of the apples were checked at day 5 and 7. A mixture of fatty acid sodium salts containing oleic acid sodium salt and stearic acid sodium salt in a 50/50 ratio was used in this experiment and will be referred to as fatty acid mix. Used pathogen: Botrytis cinerea spore-suspension containing 10^6 spores/ml. Application: The fruit peel of the apple was damaged with a cork borer, ø 4 mm and depth ˜0.5 cm into the fruit, with 2 wounds per apple. 40 microliter of a freshly prepared spore suspension of B. cinerea was applied by pipette onto each wound. Subsequently, the spore-suspension was allowed to air-dry for 4 hours. Then, 40 microliter of a treatment as presented in the list above was applied by pipette to each wound. All fruits were kept at room temperature (20° C.). Wounds of the apples were checked after 4 and 7 days of incubation. […] Replicates: All treatments for the apple experiment were performed on six individual apples with two wounds each resulting in 12 wounds per treatment.

[7] = test system: Fusarium oxysporum f. sp. cubense; assay: in vitro 96-well microtiter plate assay, visible mould development; format: cell-based; settings: substance alone
[8] = 0.03 mM fatty acid salt without natamycin
[9] = 0.09 mM fatty acid salt without natamycin
[10] = 0.3 mM fatty acid salt without natamycin
[11] = 0.9 mM fatty acid salt without natamycin

C[C@@H]1C/C=C/C=C/C=C/C=C/[C@H](O[C@@H]2O[C@H](C)[C@@H](O)[C@H](N)[C@@H]2O)C[C@@H]2O[C@](O)(C[C@@H](O)C[C@H]3O[C@@H]3/C=C/C(=O)O1)C[C@H](O)[C@H]2C(=O)O [Natamycin, natamycin]
Inhibition zone [1]: 480 square mm | surface of inhibition zone ([2]; 3 mM natamycin, 0 mM caprylic acid salt): 788 square mm | surface of inhibition zone ([3]; 3 mM natamycin, 0 mM fatty acid salt, 40 μl per disc): 585 square mm | solubility of natamycin [4]: increased | Dissolved natamycin in water ([5]; ratio natamycin:salts of oleic and stearic acid mix 1:0 (g:g), room temperature): 46 mg/L | level dissolved in water ([5]; without addition of fatty acids): about 46 ppm | Lesion area on apple fruits ([6]; 5 days after inoculation): 130 mm^2 | Lesion area on apple fruits ([6]; 7 days after inoculation): 308 mm^2 | Antifungal activity (%) ([6]; incubation 5 days): 62% | Antifungal activity (%) ([6]; incubation 7 days): 50% | sensitivity of Fusarium oxysporum [7]: > 7 µM

CCCCCCCC(=O)O [caprylic acid-Na, caprylic acid]
surface of inhibition zone [3, 8]: 0 square mm | surface of inhibition zone [3, 9]: 0 square mm | surface of inhibition zone [3, 10]: 0 square mm | surface of inhibition zone [3, 11]: 0 square mm

CCCCCCCCCCCCCCCC(=O)[O-].[Na+] [palmitic acid-Na, sodium palmitate]
surface of inhibition zone [3, 8]: 0 square mm | surface of inhibition zone [3, 9]: 0 square mm | surface of inhibition zone [3, 10]: 0 square mm | surface of inhibition zone [3, 11]: 0 square mm

CCCCCCCCCCCCCCCCCC(=O)[O-].[Na+] [stearic acid-Na, sodium stearate]
surface of inhibition zone [3, 8]: 0 square mm | surface of inhibition zone [3, 9]: 0 square mm | surface of inhibition zone [3, 10]: 0 square mm | surface of inhibition zone [3, 11]: 0 square mm

CCCCCCCC(=O)O [caprylic acid potassium salt, caprylic acid]
surface of inhibition zone ([2]; 0.03 mM caprylic acid salt without natamycin): 0 square mm | surface of inhibition zone ([2]; 0.09 mM caprylic acid salt without natamycin): 0 square mm | surface of inhibition zone ([2]; 0.3 mM caprylic acid salt without natamycin): 0 square mm | surface of inhibition zone ([2]; 0.9 mM caprylic acid salt without natamycin): 0 square mm

CCCC(=O)O [butanoic acid-Na, butanoic acid]
surface of inhibition zone [3, 8]: 0 square mm | surface of inhibition zone [3, 9]: 0 square mm | surface of inhibition zone [3, 10]: 0 square mm | surface of inhibition zone [3, 11]: 0 square mm

CCCCCCCC(=O)O [caprylic acid ammonium salt, caprylic acid]
effect on natamycin-inhibited yeast growth ([2]; caprylic acid salt 0.09, 0.3 and 0.9 mM with natamycin): enhanced | inhibition of growth of yeast by the salts themselves ([2]; without natamycin): did not inhibit
